# In patent US20260274892A1, “MACROCYCLIC BROAD SPECTRUM ANTIBIOTICS” (RQx Pharmaceuticals, Inc., priority 2017, published 2026):
# Tests used:
# [1] = system: Methicillin Resistant Staphylococcus aureus strain USA 200; assay: Minimum inhibitory concentration (MIC), CLSI broth micro-dilution, S. aureus; assay type: cell-based; settings: Staphylococcus aureus, MRSA / USA200; Table 6; MRSA USA 200; cation adjusted Mueller Hinton Broth + 0.002% Tween-80; 35° C., 22 hours
# Summary of the method: (§1)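 Colonies grown 20 h at 35° C on Trypticase Soy agar (MRSA) or Luria agar (E. coli) were suspended in cation-adjusted Mueller Hinton broth with 0.002% Tween-80. Suspensions were added at OD600 0.0005 to 10-point twofold compound dilutions, then incubated 22 h at 35° C.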
# [2] = system: Escherichia coli ATCC 25922; assay: Minimum inhibitory concentration (MIC), CLSI broth micro-dilution, E. coli; assay type: cell-based; settings: Escherichia coli, ATCC25922, 22 h, Table 6, cation adjusted Mueller Hinton Broth + 0.002% Tween-80, 35° C.
# Summary of the method: as §1
SMILES,MIC [1] [µM],MIC [2] [µM]
"C[C@@H]1NC(=O)[C@@H](N(C)C(=O)[C@H](CCN)NC(=O)[C@H]2CC[C@H](c3ccc(C(C)(C)C)cc3)CC2)c2ccc(OCCN)c(c2)-c2cc(ccc2OCCN)C[C@@H](C(=O)NCC#N)NC1=O [Compound 391, rac-(8S,11S,14S)-3,18-bis(2-aminoethoxy)-N-(cyanomethyl)-11-methyl-14-[methyl-[rac-(2S)-4-amino-2-[[4-(4-tert-butylphenyl)cyclohexanecarbonyl]amino]butanoyl]amino]-10,13-dioxo-9,12-diazatricyclo[13.3.1.12,6]icosa-1(18),2(20),3,5,15(19),16-hexaene-8-carboxamide]",0.031,0.25
"C[C@@H]1NC(=O)[C@@H](N(C)C(=O)[C@H](CCN)NC(=O)[C@H]2CC[C@@H](c3ccc(C(C)(C)C)cc3)CC2)c2ccc(OCCN)c(c2)-c2cc(ccc2OCCN)C[C@@H](C(=O)NCC#N)NC1=O [Compound 392, rac-(8S,11S,14S)-3,18-bis(2-aminoethoxy)-N-(cyanomethyl)-11-methyl-14-[methyl-[rac-(2S)-4-amino-2-[[4-(4-tert-butylphenyl)cyclohexanecarbonyl]amino]butanoyl]amino]-10,13-dioxo-9,12-diazatricyclo[13.3.1.12,6]icosa-1(18),2(20),3,5,15(19),16-hexaene-8-carboxamide]",0.063,3
"Cc1nc(-c2ccc(OC3CCCCC3)cc2)nc(C)c1C(=O)N[C@@H](CCNS(C)(=O)=O)C(=O)N(C)[C@@H]1C(=O)N[C@@H](C)C(=O)N[C@H](C(=O)NCC#N)Cc2ccc(OCCN)c(c2)-c2cc1ccc2OCCN [Compound 497, (8S,11S,14S)-3,18-bis(2-aminoethoxy)-N-(cyanomethyl)-14-[[(2S)-2-[[2-[4-(cyclohexoxy)phenyl]-4,6-dimethyl-pyrimidine-5-carbonyl]amino]-4-(methanesulfonamido)butanoyl]-methyl-amino]-11-methyl-10,13-dioxo-9,12-diazatricyclo[13.3.1.12,6]icosa-1(18),2(20),3,5,15(19),16-hexaene-8-carboxamide]",0.047,0.75
"Cc1nc(-c2ccc(OC3CCCCC3)cc2)nc(C)c1C(=O)N[C@@H](CCNC(N)=O)C(=O)N(C)[C@@H]1C(=O)N[C@@H](C)C(=O)N[C@H](C(=O)NCC#N)Cc2ccc(OCCN)c(c2)-c2cc1ccc2OCCN [Compound 498, (8S,11S,14S)-3,18-bis(2-aminoethoxy)-N-(cyanomethyl)-14-[[(2S)-2-[[2-[4-(cyclohexoxy)phenyl]-4,6-dimethyl-pyrimidine-5-carbonyl]amino]-4-ureido-butanoyl]-methyl-amino]-11-methyl-10,13-dioxo-9,12-diazatricyclo[13.3.1.12,6]icosa-1(18),2(20),3,5,15(19),16-hexaene-8-carboxamide]",0.063,1
"Cc1nc(-c2ccc(OC3CCCCC3)cc2)nc(C)c1C(=O)N[C@@H](CNC(N)=O)C(=O)N(C)[C@@H]1C(=O)N[C@@H](C)C(=O)N[C@H](C(=O)NCC#N)Cc2ccc(OCCN)c(c2)-c2cc1ccc2OCCN [Compound 499, (8S,11S,14S)-3,18-bis(2-aminoethoxy)-N-(cyanomethyl)-14-[[(2S)-2-[[2-[4-(cyclohexoxy)phenyl]-4,6-dimethyl-pyrimidine-5-carbonyl]amino]-3-ureido-propanoyl]-methyl-amino]-11-methyl-10,13-dioxo-9,12-diazatricyclo[13.3.1.12,6]icosa-1(18),2(20),3,5,15(19),16-hexaene-8-carboxamide]",0.063,1.5
"Cc1nc(-c2ccc(OC3CCCCC3)cc2)nc(C)c1C(=O)N[C@@H](CCNS(N)(=O)=O)C(=O)N(C)[C@@H]1C(=O)N[C@@H](C)C(=O)N[C@H](C(=O)NCC#N)Cc2ccc(OCCN)c(c2)-c2cc1ccc2OCCN [Compound 500, (8S,11S,14S)-3,18-bis(2-aminoethoxy)-N-(cyanomethyl)-14-[[(2S)-2-[[2-[4-(cyclohexoxy)phenyl]-4,6-dimethyl-pyrimidine-5-carbonyl]amino]-4-(sulfamoylamino)butanoyl]-methyl-amino]-11-methyl-10,13-dioxo-9,12-diazatricyclo[13.3.1.12,6]icosa-1(18),2(20),3,5,15(19),16-hexaene-8-carboxamide]",0.031,0.48
"Cc1nc(-c2ccc(OC3CCCCC3)cc2)nc(C)c1C(=O)N[C@@H](CCCNC(N)=O)C(=O)N(C)[C@@H]1C(=O)N[C@@H](C)C(=O)N[C@H](C(=O)NCC#N)Cc2ccc(OCCN)c(c2)-c2cc1ccc2OCCN [Compound 501, (8S,11S,14S)-3,18-bis(2-aminoethoxy)-N-(cyanomethyl)-14-[[(2S)-2-[[2-[4-(cyclohexoxy)phenyl]-4,6-dimethyl-pyrimidine-5-carbonyl]amino]-5-ureido-pentanoyl]-methyl-amino]-11-methyl-10,13-dioxo-9,12-diazatricyclo[13.3.1.12,6]icosa-1(18),2(20),3,5,15(19),16-hexaene-8-carboxamide]",0.063,1
"Cc1nc(-c2ccc(OC3CCCCC3)cc2)nc(C)c1C(=O)N[C@@H](CCCNS(N)(=O)=O)C(=O)N(C)[C@@H]1C(=O)N[C@@H](C)C(=O)N[C@H](C(=O)NCC#N)Cc2ccc(OCCN)c(c2)-c2cc1ccc2OCCN [Compound 503, (8S,11S,14S)-3,18-bis(2-aminoethoxy)-N-(cyanomethyl)-14-[[(2S)-2-[[2-[4-(cyclohexoxy)phenyl]-4,6-dimethyl-pyrimidine-5-carbonyl]amino]-5-(sulfamoylamino)pentanoyl]-methyl-amino]-11-methyl-10,13-dioxo-9,12-diazatricyclo[13.3.1.12,6]icosa-1(18),2(20),3,5,15(19),16-hexaene-8-carboxamide]",0.047,1
"Cc1nc(-c2ccc(OC3CCCCC3)cc2)nc(C)c1C(=O)N[C@@H](CO)C(=O)N(C)[C@@H]1C(=O)N[C@@H](C)C(=O)N[C@H](C(=O)NCC#N)Cc2ccc(OCCN)c(c2)-c2cc1ccc2OCCN [Compound 507, (8S,11S,14S)-3,18-bis(2-aminoethoxy)-N-(cyanomethyl)-14-[[(2S)-2-[[2-[4-(cyclohexoxy)phenyl]-4,6-dimethyl-pyrimidine-5-carbonyl]amino]-3-hydroxy-propanoyl]-methyl-amino]-11-methyl-10,13-dioxo-9,12-diazatricyclo[13.3.1.12,6]icosa-1(18),2(20),3,5,15(19),16-hexaene-8-carboxamide]",0.063,0.38
"Cc1nc(-c2ccc(OC3CCCCC3)cc2)nc(C)c1C(=O)N[C@H](CO)C(=O)N(C)[C@@H]1C(=O)N[C@@H](C)C(=O)N[C@H](C(=O)NCC#N)Cc2ccc(OCCN)c(c2)-c2cc1ccc2OCCN [Compound 508, (8S,11S,14S)-3,18-bis(2-aminoethoxy)-N-(cyanomethyl)-14-[[(2R)-2-[[2-[4-(cyclohexoxy)phenyl]-4,6-dimethyl-pyrimidine-5-carbonyl]amino]-3-hydroxy-propanoyl]-methyl-amino]-11-methyl-10,13-dioxo-9,12-diazatricyclo[13.3.1.12,6]icosa-1(18),2(20),3,5,15(19),16-hexaene-8-carboxamide]",1,6
"Cc1nc(-c2ccc(OC3CCCCC3)cc2)nc(C)c1C(=O)N[C@@H](CCO)C(=O)N(C)[C@@H]1C(=O)N[C@@H](C)C(=O)N[C@H](C(=O)NCC#N)Cc2ccc(OCCN)c(c2)-c2cc1ccc2OCCN [Compound 509, (8S,11S,14S)-3,18-bis(2-aminoethoxy)-N-(cyanomethyl)-14-[[(2S)-2-[[2-[4-(cyclohexoxy)phenyl]-4,6-dimethyl-pyrimidine-5-carbonyl]amino]-4-hydroxy-butanoyl]-methyl-amino]-11-methyl-10,13-dioxo-9,12-diazatricyclo[13.3.1.12,6]icosa-1(18),2(20),3,5,15(19),16-hexaene-8-carboxamide]",0.047,0.5

# The next compounds have a lower MIC [1] than those just listed; values first:
MIC [1] [µM],MIC [2] [µM],SMILES
0.023,0.5,CCc1nc(-c2ccc(C(C)(C)C)cc2)nc(C)c1C(=O)N[C@@H](CCN)C(=O)N(C)[C@@H]1C(=O)N[C@@H](C)C(=O)N[C@H](C(=O)NCC#N)Cc2ccc(OCCN)c(c2)-c2cc1ccc2OCCN [Compound 485]
0.023,0.38,CCCc1nc(-c2ccc(C(C)(C)C)cc2)nc(C)c1C(=O)N[C@@H](CCN)C(=O)N(C)[C@@H]1C(=O)N[C@@H](C)C(=O)N[C@H](C(=O)NCC#N)Cc2ccc(OCCN)c(c2)-c2cc1ccc2OCCN [Compound 486]
0.023,1,C[C@@H]1NC(=O)[C@@H](N(C)C(=O)[C@H](CCN)NC(=O)c2cnc(-c3ccc(C(C)(C)C)cc3)nc2N(C)C)c2ccc(OCCN)c(c2)-c2cc(ccc2OCCN)C[C@@H](C(=O)NCC#N)NC1=O [Compound 490]
0.016,0.38,Cc1nc(-c2ccc(C(C)(C)C)cc2)nc(C(C)C)c1C(=O)N[C@@H](CCN)C(=O)N(C)[C@@H]1C(=O)N[C@@H](C)C(=O)N[C@H](C(=O)NCC#N)Cc2ccc(OCCN)c(c2)-c2cc1ccc2OCCN [Compound 487]
0.016,0.38,CNc1nc(-c2ccc(C(C)(C)C)cc2)ncc1C(=O)N[C@@H](CCN)C(=O)N(C)[C@@H]1C(=O)N[C@@H](C)C(=O)N[C@H](C(=O)NCC#N)Cc2ccc(OCCN)c(c2)-c2cc1ccc2OCCN [Compound 489]
0.016,2,"Cc1nc(-c2ccc(C(C)(C)C)cc2)nc(C)c1C(=O)N[C@@H](CC(C)(C)N)C(=O)N(C)[C@@H]1C(=O)N[C@@H](C)C(=O)N[C@H](C(=O)NCC#N)Cc2ccc(OCCN)c(c2)-c2cc1ccc2OCCN [Compound 492, (8S,11S,14S)-14-[[(2S)-4-amino-2-[[2-(4-tert-butylphenyl)-4,6-dimethyl-pyrimidine-5-carbonyl]amino]-4-methyl-pentanoyl]-methyl-amino]-3,18-bis(2-aminoethoxy)-N-(cyanomethyl)-11-methyl-10,13-dioxo-9,12-diazatricyclo[13.3.1.12,6]icosa-1(18),2(20),3,5,15(19),16-hexaene-8-carboxamide]"
